Assay results taken from patent US20240366813A1, “PEPTIDE-UREA DERIVATIVE, PHARMACEUTICAL COMPOSITION CONTAINING SAME AND APPLICATION THEREOF” (Bivision Pharmaceuticals, Inc., priority 0001, published 2024).
Several values for one entry are separate records, joined by “and”; a condition that tells them apart may be missing. Equal values may be shown once.

Assays:
[1] = In vivo metabolism test of 177Lu-labeled complex in SD rats (plasma radioactive counts); conditions: for plasma radioactive counts: individual rat, 100 μL plasma; for plasma radioactive counts, MEAN: mean of rats
Procedure: Eighteen SD rats (Hangzhou Ziyuan Experimental Animal Technology Co., Ltd.), male, weighing 180-200 g, were randomly divided into 6 groups, 3 rats in each group. […] of the labeled precursor compound was injected into the tail vein of each mouse. 250 μL of orbital blood was collected into anticoagulant tubes at 5 min, 0.5 h, 1 h, 2 h, 4 h, 8 h and 24 h after administration. Blood was centrifuged at 3000 rpm for 10 min, and 100 μL of plasma was taken into scintillation vials. 2 mL of scintillation fluid was added to each scintillation vial and shaken well. A liquid scintillation counter was used to detect radioactive counts in each vial.

[2] = system: PSMA-positive cells LNCap; test: Uptake of labeled compounds by PSMA-positive cells LNCap; type: cell-based; conditions: 37° C., 0.5 h
Procedure: LNCap cells (Shangcheng Beina Chuanglian Biotechnology Co., Ltd., Industrial Park, Chengguan Town, Shangcheng County, Xinyang City, Henan Province) were revived and passaged for expansion. After the cells were expanded to a sufficient amount, cells were seeded in a 24-well plate at a density of 1×10^4 cells/well. Uptake tests were performed when cells grew to 80%-90% confluence.
The above labeled compounds ^177Lu-E1, ^177Lu-E2, ^177Lu-E3, ^177Lu-E5, ^177Lu-E9, ^177Lu-E14 and ^177Lu-PSMA-617 were diluted with serum-free medium into 10000, 1000, 100, 10, 1, 0.1 and 0 nM. 1 mL of the diluted solution was added to a 24-well plate, and incubated at 37° C. for 0.5 h. The supernatant was discarded and the cells were washed 3 times with PBS. 250 μL of 1M NaOH solution was added to each well. The cells were pipetted until they were completely dissolved, and transferred to a scintillation vial. 250 μL of NaOH solution was added to each well again to wash the bottom of the well and transferred to a scintillation vial. 2 mL of scintillation fluid was added to each scintillation vial and shaken well. A liquid scintillation counter was used to detect radioactive counts in each vial.

[3] = 5 min after tail vein injection
[4] = 0.5 h after tail vein injection

SMILES | plasma radioactive counts [1, 3] | plasma radioactive counts [1, 4] | plasma radioactive counts ([1]; 1 h after tail vein injection) | plasma radioactive counts ([1]; 2 h after tail vein injection) | plasma radioactive counts ([1]; 4 h after tail vein injection) | plasma radioactive counts ([1]; 8 h after tail vein injection) | plasma radioactive counts ([1]; 24 h after tail vein injection) | plasma radioactive counts, MEAN [1, 3] | plasma radioactive counts, MEAN [1, 4] | plasma radioactive counts, MEAN ([1]; 1 h after tail vein injection) | plasma radioactive counts, MEAN ([1]; 2 h after tail vein injection) | plasma radioactive counts, MEAN ([1]; 4 h after tail vein injection) | plasma radioactive counts, MEAN ([1]; 8 h after tail vein injection) | plasma radioactive counts, MEAN ([1]; 24 h after tail vein injection) | uptake by LNCap cells ([2]; 0.1 nM) | uptake by LNCap cells ([2]; 1 nM) | uptake by LNCap cells ([2]; 10 nM) | uptake by LNCap cells ([2]; 100 nM) | uptake by LNCap cells ([2]; 1000 nM) | uptake by LNCap cells ([2]; 10000 nM)
O=C([O-])CN1CCN(CC(=O)[O-])CCN(CC(=O)NC23CC(C(=O)NC(Cc4ccc5ccccc5c4)C(=O)NCCCCC(NC(=O)NC(CCC(=O)O)C(=O)O)C(=O)O)(C2)C3)CCN(CC(=O)[O-])CC1.[177Lu+3] (stereo not drawn) [^177Lu-E14] | 42150 cpm and 41058 cpm and 45756 cpm | 18047 cpm and 18268 cpm and 18614 cpm | 7200 cpm and 6304 cpm and 6154 cpm | 1415 cpm and 1686 cpm and 1863 cpm | 203 cpm and 198 cpm and 259 cpm | 201 cpm and 206 cpm and 203 cpm | 196 cpm and 175 cpm and 159 cpm | 42988 cpm | 18310 cpm | 6553 cpm | 1655 cpm | 220 cpm | 203 cpm | 177 cpm | 28 cpm | 82 cpm | 220 cpm | 345 cpm | 479 cpm | 362 cpm
O=C([O-])CN1CCN(CC(=O)[O-])CCN(CC(=O)N2CCC3(CCC(C(=O)NC(Cc4ccc5ccccc5c4)C(=O)NCCCCC(NC(=O)NC(CCC(=O)O)C(=O)O)C(=O)O)CC3)CC2)CCN(CC(=O)[O-])CC1.[177Lu+3] (stereo not drawn) [^177Lu-E9] | 30764 cpm and 38134 cpm and 30001 cpm | 10391 cpm and 12249 cpm and 8575 cpm | 4483 cpm and 4139 cpm and 2519 cpm | 892 cpm and 652 cpm and 346 cpm | 210 cpm and 196 cpm and 197 cpm | 171 cpm and 184 cpm and 161 cpm | 164 cpm and 162 cpm and 183 cpm | 32966 cpm | 10405 cpm | 3714 cpm | 630 cpm | 201 cpm | 172 cpm | 170 cpm | 56 cpm | 55 cpm | 84 cpm | 140 cpm | 405 cpm | 1194 cpm
O=C([O-])CN1CCN(CC(=O)[O-])CCN(CC(=O)N2CC3(CCC(C(=O)NC(Cc4ccc5ccccc5c4)C(=O)NCCCCC(NC(=O)NC(CCC(=O)O)C(=O)O)C(=O)O)CC3)C2)CCN(CC(=O)[O-])CC1.[177Lu+3] (stereo not drawn) [^177Lu-E2] | 37703 cpm and 41406 cpm | 18427 cpm and 15030 cpm | 7473 cpm and 5428 cpm | 1863 cpm and 1189 cpm | 296 cpm and 219 cpm | 178 cpm and 190 cpm | 167 cpm and 170 cpm | 39555 cpm | 16729 cpm | 6451 cpm | 1526 cpm | 258 cpm | 184 cpm | 169 cpm | 29 cpm | 91 cpm | 344 cpm | 596 cpm | 775 cpm | 1328 cpm
